ChEMBL document CHEMBL1201862, “PubChem BioAssay data set” (2004)
Calls of active or inactive are those of the source.

What was measured:
[1] = biological target: T1, Luciferin 4-monooxygenase (Photinus pyralis, UniProt P08659); assay: firefly luciferase enzyme inhibitors, dose response, biochemical, luminescence (AID 1891)
[2] = system: H9c2; assay: cells; type: functional, cell-based; details: Rattus norvegicus, H9c2, Myocardium;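 note: confirmatory concentration-response retest of ultra-high-throughput screening hits for modulation of myocardial damage; cell death induced by hydrogen peroxide oxidative stress; compound pretreatment for 60 min then peroxide exposure for 2 h; potency is for protecting the cells against peroxide damage rather than for killing them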
[3] = inhibitors of Bluetongue virus cytopathic effect, confirmation, arbovirus, BSR cells (AID 1250); type: functional;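 note: protection from viral cytopathic effect measured as cell viability by ATP luminescence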
[4] = Luminescence Cell-Based Dose Confirmation HTS to Identify Inhibitors of Platelet Dense Granule Release. [Related pubchem assays: 1663 (Primary HTS), 1678 (Summary of Project)]; type: functional
[5] = biological target: Glyceraldehyde-3-phosphate dehydrogenase (Homo sapiens, UniProt P04406)
Glyceraldehyde-3-phosphate dehydrogenase, sequence (P04406 whole entry): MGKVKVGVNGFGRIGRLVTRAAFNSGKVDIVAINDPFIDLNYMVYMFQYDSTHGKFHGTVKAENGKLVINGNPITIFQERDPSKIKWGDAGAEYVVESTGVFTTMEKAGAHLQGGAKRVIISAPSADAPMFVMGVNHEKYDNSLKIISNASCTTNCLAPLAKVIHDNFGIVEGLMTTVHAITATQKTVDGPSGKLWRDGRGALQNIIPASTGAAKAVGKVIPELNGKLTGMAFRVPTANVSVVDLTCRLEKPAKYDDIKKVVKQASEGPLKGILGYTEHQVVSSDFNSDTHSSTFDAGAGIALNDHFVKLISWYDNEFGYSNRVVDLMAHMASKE

[6] = biological target: T2, Bcl-2-related protein A1 (Mus musculus, UniProt Q07440); assay: Bfl-1 binding inhibitors, SAR follow-up, biochemical, fluorescence polarization (AID 1070)
T2 sequence (Q07440 whole entry): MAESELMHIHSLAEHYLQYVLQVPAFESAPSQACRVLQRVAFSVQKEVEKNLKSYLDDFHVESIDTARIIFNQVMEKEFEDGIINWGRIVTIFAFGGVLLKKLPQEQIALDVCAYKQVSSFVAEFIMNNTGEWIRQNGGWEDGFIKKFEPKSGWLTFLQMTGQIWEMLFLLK

[7] = biological target: T2, Bcl-2-related protein A1; assay: Bfl-1 inhibitors blocking BH3 peptide binding, confirmation, biochemical, TR-FRET, mouse Bfl-1 (AID 621);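 note: TR-FRET binding of GST-Bfl-1 to FITC-labelled Bid peptide via terbium antibody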
[8] = Luminescence Cell-Based Dose Response to Identify Activators of 5'UTR Stem-Loop Driven Prion Protein mRNA Translation in H4-C Neuroglioblastoma Cells. [Related pubchem assays: 1829 (Project Summary), 1814 (Primary HTS)]; type: functional
[9] = Luminescence Cell-Based Dose Confirmation to Identify Activators of 5'UTR Stem-Loop Driven Alpha-Synuclein mRNA Translation in H4 Neuroglioblastoma Cells. [Related pubchem assays: 1829 (Project Summary), 1814 (Primary HTS)]; type: functional
[10] = Luminescence Cell-Based Dose Response to Identify Activators of Luciferase Translation or Activity in H4-C Neuroglioblastoma Cells. [Related pubchem assays: 1829 (Project Summary), 1814 (Primary HTS)]; type: functional
[11] = biological target: T3, Sentrin-specific protease 6 (Homo sapiens, UniProt Q9GZR1); type: functional;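 note: Luminescence-based dose-response confirmatory assay of SENP6 inhibition, following up an ultra-high-throughput screen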
T3 sequence (Q9GZR1 whole entry): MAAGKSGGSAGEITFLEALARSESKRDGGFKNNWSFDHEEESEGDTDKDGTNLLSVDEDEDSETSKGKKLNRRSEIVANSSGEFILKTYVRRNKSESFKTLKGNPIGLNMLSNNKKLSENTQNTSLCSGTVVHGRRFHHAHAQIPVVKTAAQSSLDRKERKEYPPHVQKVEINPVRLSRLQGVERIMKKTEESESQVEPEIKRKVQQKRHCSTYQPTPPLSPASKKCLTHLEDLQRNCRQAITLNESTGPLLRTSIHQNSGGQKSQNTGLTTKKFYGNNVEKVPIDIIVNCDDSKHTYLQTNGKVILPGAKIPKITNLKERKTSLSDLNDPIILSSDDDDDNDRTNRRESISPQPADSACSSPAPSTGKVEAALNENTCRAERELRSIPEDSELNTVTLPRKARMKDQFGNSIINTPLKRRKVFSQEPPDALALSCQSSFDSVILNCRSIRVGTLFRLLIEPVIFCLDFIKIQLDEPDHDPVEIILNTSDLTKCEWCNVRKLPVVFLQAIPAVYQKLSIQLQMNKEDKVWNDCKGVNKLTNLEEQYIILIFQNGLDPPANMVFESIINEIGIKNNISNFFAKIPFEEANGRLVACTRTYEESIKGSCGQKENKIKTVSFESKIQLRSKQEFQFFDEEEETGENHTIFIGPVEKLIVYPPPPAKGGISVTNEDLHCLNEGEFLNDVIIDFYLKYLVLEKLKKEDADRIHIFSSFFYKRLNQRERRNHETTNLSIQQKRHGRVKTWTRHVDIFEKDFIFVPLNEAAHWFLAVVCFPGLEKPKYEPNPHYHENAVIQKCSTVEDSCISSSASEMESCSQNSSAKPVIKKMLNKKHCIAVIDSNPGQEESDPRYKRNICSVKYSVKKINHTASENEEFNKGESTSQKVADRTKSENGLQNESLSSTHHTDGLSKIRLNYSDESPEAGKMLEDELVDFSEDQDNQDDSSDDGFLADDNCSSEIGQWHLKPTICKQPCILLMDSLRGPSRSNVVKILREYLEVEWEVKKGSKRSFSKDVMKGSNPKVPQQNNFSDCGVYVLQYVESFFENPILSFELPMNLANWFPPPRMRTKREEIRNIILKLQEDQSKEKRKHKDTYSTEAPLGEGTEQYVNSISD

[12] = biological target: T4, Sentrin-specific protease 8 (Homo sapiens, UniProt Q96LD8); type: functional;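 note: luminescence read-out of SENP8 inhibition, dose-response confirmation following an ultra-high-throughput screen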
T4 sequence (Q96LD8 whole entry): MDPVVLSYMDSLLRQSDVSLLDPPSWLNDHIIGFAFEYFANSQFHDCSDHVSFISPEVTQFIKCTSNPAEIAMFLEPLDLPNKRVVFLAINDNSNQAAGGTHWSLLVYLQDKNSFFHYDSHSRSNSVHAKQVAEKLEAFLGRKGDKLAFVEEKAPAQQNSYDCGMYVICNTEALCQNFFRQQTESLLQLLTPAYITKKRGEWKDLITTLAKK

[13] = system: H4; assay: Luminescence Cell-Based Dose Response HTS to Identify Activators of 5'UTR Stem-Loop Driven Prion Protein mRNA Translation in H4 Neuroglioblastoma Cells. [Related pubchem assays: 1829 (Project Summary), 1814 (Primary HTS)]; type: functional; details: Homo sapiens
[14] = biological target: T5, Caspase-3 (Homo sapiens, UniProt P42574); type: functional;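 note: Dose-response selectivity test against caspase-3 for candidate inhibitors of sentrin-specific proteases (SENPs)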
T5 sequence (P42574 whole entry): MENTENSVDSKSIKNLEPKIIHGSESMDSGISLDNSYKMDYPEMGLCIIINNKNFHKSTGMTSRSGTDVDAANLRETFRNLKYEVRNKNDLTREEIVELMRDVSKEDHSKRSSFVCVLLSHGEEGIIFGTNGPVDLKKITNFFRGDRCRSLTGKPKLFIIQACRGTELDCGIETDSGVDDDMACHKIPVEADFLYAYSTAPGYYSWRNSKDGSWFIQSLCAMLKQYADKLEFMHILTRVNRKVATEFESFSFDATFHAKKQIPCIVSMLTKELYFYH

[15] = biological target: T6, Sentrin-specific protease 7 (Homo sapiens, UniProt Q9BQF6); type: functional;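 note: Luminescence-based dose-response confirmation of ultra-high-throughput screening hits, measuring inhibition of SENP7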
T6 sequence (Q9BQF6 whole entry): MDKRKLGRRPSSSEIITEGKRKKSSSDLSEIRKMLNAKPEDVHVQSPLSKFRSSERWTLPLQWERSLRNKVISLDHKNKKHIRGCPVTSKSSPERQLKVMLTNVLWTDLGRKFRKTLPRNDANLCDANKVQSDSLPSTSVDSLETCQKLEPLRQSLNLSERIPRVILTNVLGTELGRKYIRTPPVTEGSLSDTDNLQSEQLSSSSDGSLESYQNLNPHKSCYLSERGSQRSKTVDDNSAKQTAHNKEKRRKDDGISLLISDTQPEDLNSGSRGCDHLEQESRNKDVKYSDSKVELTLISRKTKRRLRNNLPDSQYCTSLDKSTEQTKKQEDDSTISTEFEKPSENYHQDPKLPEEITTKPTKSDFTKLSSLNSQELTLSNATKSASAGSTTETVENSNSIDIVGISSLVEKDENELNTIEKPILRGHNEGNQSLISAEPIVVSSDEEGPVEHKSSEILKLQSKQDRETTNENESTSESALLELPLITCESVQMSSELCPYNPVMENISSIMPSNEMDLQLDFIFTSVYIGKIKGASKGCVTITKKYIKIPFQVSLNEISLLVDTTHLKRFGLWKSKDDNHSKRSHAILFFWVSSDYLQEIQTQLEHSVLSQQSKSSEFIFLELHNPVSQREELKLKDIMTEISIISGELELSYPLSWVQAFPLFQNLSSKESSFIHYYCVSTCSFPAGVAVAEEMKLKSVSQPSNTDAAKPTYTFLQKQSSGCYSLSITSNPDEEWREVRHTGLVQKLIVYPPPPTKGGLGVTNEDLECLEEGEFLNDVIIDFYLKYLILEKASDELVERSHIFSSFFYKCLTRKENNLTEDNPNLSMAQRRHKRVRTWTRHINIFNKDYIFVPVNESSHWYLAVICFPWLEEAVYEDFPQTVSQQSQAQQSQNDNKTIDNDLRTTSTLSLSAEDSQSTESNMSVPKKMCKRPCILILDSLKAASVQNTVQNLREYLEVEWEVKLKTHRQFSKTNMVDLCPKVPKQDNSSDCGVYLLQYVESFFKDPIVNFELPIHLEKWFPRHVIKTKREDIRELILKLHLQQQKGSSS

[16] = Luminescence Cell-Based Dose Response HTS to Identify Activators of Luciferase Translation or Activity in H4 […] Cells. [Related pubchem assays: 1829 (Project Summary), 1814 (Primary HTS)]; type: functional
[17] = A Cell Based Secondary Assay To Explore Cytotoxicity of Compounds that Sensitize Mycobacterium Tuberculosis to Beta-Lactam Antibiotics.; type: functional
[18] = biological target: T1, Luciferin 4-monooxygenase; assay: Counter Screen for Luciferase-based Assay Positives. [Related pubchem assays: 620, 618, 411 ]
[19] = system: HT-1080; assay: cytotoxicity in HT1080 fibrosarcoma cells, cell-based, fluorescence readout (AID 620); type: functional; details: Homo sapiens
[20] = biological target: Epstein-Barr nuclear antigen 1 (Epstein-Barr virus (strain B95-8) (HHV-4) (Human herpesvirus 4), UniProt P03211); assay: EBNA-1 inhibitors, dose response, biochemical, fluorescence polarization, 1536-well (AID 2381); design: species or system human gammaherpesvirus 4;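 note: fluorescence polarization of a Cy5 DNA probe bound by EBNA-1 protein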
Epstein-Barr nuclear antigen 1, sequence (P03211 whole entry): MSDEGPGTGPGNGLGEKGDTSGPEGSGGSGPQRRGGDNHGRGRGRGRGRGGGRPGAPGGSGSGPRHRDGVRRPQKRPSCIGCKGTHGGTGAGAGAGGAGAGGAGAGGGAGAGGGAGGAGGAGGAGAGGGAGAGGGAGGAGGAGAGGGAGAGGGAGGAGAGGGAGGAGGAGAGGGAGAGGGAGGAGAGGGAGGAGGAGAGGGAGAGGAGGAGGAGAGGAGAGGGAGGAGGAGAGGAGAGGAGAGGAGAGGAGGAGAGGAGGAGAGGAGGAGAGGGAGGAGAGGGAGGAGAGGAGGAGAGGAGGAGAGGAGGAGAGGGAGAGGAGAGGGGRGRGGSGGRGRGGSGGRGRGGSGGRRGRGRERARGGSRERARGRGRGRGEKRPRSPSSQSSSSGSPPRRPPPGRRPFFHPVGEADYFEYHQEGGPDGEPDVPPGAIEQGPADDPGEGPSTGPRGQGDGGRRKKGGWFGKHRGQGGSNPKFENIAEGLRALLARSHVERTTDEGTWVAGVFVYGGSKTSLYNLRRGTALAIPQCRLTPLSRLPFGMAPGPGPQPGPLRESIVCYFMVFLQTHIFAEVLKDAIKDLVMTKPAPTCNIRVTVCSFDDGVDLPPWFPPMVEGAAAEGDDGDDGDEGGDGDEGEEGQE

[21] = biological target: Lytic switch protein BZLF1 (Epstein-Barr virus (strain B95-8) (HHV-4) (Human herpesvirus 4), UniProt P03206); assay: EBV ZTA inhibitors, dose response, counter-screen for EBNA-1 inhibitor project, biochemical, fluorescence polarization, Epstein-Barr virus, 1536-well (AID 2377); design: species or system human gammaherpesvirus 4;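 note: fluorescence polarization of Cy5-labelled ZRE DNA probe bound by purified Zta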
Lytic switch protein BZLF1, sequence (P03206 whole entry): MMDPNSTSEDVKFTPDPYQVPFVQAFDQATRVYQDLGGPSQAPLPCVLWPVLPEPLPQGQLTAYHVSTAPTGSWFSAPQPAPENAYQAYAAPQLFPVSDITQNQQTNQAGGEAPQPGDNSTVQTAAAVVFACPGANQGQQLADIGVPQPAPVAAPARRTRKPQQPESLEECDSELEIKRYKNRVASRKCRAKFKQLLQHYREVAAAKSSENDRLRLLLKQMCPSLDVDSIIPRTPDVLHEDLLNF

[22] = biological target: Peroxisome proliferator-activated receptor gamma/Nuclear receptor coactivator 2 (Homo sapiens, UniProt P37231); type: functional;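 note: agonist potency for raising coactivator recruitment to the receptor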
[23] = biological target: Cytochrome P450 3A4 (Homo sapiens, UniProt P08684);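 note: CYP3A4 tested as one member of a cytochrome P450 panel screen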
Cytochrome P450 3A4, sequence (P08684 whole entry): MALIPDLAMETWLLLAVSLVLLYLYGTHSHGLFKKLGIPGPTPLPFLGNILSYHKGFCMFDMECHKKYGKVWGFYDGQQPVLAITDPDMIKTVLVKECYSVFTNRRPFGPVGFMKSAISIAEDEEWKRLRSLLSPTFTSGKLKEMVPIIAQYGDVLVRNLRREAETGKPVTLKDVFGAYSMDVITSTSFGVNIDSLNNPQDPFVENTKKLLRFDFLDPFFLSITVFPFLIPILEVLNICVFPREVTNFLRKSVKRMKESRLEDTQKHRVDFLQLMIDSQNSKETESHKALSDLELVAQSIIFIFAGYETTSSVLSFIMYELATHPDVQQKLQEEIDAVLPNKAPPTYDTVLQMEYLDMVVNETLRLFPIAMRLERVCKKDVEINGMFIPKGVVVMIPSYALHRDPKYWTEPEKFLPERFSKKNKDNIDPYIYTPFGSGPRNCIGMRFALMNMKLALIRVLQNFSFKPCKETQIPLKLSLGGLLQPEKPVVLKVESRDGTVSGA

[24] = biological target: Peroxisome proliferator-activated receptor gamma/Nuclear receptor coactivator 1 (Homo sapiens, UniProt P37231); type: functional;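 note: agonist potency as compounds enhance coactivator SRC-1 recruitment to PPARgamma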
[25] = biological target: Peroxisome proliferator-activated receptor gamma/Nuclear receptor coactivator 3 (Homo sapiens, UniProt P37231); type: functional;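 note: agonist potency for raising coactivator recruitment to the receptor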
Peroxisome proliferator-activated receptor gamma/Nuclear receptor coactivator 3, sequence (P37231 whole entry): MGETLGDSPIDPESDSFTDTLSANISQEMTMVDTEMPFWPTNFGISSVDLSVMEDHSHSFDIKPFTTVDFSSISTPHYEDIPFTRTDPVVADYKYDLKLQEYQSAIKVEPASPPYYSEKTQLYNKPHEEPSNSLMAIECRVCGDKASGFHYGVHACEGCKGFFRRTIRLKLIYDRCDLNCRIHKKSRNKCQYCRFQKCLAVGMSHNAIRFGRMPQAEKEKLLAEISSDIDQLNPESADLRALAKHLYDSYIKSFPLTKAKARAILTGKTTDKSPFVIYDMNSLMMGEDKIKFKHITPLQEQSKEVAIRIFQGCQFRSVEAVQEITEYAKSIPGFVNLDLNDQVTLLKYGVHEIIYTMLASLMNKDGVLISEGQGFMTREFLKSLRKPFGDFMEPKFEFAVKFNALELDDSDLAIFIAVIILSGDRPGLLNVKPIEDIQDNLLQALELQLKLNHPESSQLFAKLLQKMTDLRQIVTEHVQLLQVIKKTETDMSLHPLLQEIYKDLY
Peroxisome proliferator-activated receptor gamma/Nuclear receptor coactivator 3, sequence (Q9Y6Q9 whole entry, further chain): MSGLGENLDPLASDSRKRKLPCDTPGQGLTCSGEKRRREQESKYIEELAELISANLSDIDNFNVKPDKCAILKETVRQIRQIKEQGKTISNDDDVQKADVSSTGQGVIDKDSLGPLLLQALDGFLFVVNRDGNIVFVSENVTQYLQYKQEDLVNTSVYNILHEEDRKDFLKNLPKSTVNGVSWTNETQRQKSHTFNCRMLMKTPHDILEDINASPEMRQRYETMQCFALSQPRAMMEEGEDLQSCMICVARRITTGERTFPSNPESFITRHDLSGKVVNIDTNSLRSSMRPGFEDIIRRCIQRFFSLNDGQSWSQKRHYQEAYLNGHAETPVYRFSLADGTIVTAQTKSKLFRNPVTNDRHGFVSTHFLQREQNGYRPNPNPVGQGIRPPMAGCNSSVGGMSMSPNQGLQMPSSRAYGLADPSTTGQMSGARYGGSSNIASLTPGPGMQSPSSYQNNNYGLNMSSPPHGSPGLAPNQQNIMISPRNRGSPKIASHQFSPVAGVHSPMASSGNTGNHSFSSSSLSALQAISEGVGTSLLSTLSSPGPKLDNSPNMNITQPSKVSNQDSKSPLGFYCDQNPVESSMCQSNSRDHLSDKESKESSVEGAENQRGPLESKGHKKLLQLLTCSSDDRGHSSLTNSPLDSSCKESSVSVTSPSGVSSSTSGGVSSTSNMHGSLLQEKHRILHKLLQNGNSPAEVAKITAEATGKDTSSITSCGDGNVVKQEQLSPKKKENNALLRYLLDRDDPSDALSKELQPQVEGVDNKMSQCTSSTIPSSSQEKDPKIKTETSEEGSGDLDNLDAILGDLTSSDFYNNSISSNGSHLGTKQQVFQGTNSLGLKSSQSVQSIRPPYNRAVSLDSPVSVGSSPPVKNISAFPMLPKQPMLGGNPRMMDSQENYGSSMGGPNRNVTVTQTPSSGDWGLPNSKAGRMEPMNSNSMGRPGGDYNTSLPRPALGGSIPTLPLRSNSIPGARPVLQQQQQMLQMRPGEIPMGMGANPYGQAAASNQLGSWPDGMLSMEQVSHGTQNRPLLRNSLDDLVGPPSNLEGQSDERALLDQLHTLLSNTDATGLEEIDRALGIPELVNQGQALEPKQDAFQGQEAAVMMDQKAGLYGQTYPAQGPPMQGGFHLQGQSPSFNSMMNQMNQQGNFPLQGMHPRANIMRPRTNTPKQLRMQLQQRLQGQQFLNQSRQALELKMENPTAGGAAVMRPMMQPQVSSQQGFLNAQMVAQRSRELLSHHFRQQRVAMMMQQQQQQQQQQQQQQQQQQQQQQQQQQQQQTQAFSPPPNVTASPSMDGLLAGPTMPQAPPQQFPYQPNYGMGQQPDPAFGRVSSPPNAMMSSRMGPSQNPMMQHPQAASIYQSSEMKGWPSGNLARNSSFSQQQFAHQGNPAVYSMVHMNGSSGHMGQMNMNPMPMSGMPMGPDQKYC

[26] = biological target: T7, Protein skinhead-1 (Caenorhabditis elegans, UniProt P34707); type: functional
T7 sequence (P34707 whole entry): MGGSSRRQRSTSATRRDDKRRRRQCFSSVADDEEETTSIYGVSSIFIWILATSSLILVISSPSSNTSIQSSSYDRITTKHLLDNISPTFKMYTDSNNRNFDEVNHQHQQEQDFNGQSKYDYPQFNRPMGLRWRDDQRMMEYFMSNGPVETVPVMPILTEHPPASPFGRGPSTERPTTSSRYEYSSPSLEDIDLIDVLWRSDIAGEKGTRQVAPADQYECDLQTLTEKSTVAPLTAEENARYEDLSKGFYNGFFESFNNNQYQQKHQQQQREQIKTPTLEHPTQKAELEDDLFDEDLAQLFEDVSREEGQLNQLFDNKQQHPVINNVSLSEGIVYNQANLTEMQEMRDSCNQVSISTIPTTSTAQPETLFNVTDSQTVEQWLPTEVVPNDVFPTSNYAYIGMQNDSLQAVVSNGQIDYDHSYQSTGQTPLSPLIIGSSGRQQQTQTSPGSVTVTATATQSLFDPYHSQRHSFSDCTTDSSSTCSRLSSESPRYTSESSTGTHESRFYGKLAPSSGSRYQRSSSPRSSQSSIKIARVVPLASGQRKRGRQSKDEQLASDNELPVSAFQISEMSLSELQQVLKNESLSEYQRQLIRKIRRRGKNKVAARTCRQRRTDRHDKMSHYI

[27] = biological target: Cytochrome P450 2C19 (Homo sapiens, UniProt P33261); assay: Cytochrome panel assay with activity outcomes. Panel member name: p450-cyp2c19 Compounds with AC50 equal or less than 10 uM are considered active; type: functional; details: read-out: AC50
Cytochrome P450 2C19, sequence (P33261 whole entry): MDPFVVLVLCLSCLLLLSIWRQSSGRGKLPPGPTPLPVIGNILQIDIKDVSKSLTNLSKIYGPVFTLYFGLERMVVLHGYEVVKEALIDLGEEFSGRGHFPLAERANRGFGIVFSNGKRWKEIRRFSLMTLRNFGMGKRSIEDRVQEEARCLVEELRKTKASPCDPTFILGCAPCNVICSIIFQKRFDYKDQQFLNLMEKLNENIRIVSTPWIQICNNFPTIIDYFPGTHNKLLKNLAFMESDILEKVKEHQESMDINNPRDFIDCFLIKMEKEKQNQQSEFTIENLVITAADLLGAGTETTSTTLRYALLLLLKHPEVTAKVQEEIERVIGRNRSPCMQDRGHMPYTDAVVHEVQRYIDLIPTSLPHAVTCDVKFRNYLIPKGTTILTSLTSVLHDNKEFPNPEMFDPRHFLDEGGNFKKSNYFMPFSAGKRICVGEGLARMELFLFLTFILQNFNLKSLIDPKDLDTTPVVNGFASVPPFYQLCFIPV

T1 sequence (P08659 whole entry): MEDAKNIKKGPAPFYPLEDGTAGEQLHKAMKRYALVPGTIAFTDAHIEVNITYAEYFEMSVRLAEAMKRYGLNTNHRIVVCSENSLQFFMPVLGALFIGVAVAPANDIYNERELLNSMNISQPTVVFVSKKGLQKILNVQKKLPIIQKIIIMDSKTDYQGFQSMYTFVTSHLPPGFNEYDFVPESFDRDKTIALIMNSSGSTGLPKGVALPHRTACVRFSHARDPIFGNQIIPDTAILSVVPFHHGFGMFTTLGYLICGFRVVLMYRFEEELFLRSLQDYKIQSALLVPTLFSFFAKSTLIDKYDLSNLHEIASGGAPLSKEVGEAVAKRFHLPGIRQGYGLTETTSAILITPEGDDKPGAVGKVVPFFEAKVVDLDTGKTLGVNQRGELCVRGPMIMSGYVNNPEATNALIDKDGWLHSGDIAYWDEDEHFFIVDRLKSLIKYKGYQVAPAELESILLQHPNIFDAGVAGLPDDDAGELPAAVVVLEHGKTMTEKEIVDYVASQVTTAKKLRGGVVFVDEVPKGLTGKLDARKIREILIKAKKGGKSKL

In the case of `COc1ccc(-c2nnc(-c3cc(OC)c(OC)c(OC)c3)o2)cc1OC`, the EC50 [1] is reported as > 112 µM (not active), the IC50 [2] is reported as 12.5 µM (active) and the IC50 [3] is reported as 27.5 µM (active). The EC50 [4] was > 112 µM (not active).

In the case of `CCOc1ccccc1N1CCN(C2=C(Cl)C(=O)N(c3ccc(Cl)c(Cl)c3)C2=O)CC1`, the IC50 [5] is reported as > 100 µM (not active), the IC50 [6] is reported as > 100 µM (not active) and the IC50 [7] is reported as > 100 µM (not active).

For `O=C(Nc1cccc(F)c1)Nc1ccc2c(c1)CCC2`, the EC50 [8] was 0.63 µM (active), the EC50 [9] was 10.7 µM (active) and the EC50 [10] was 0.463 µM (active). The IC50 [11] was > 100 µM (inactive), the IC50 [12] was > 100 µM (inactive) and the EC50 [13] was > 120 µM (not active). For the same molecule, the IC50 [14] was 57.8 µM (active), the IC50 [15] was 2.85 µM (active) and the EC50 [16] was < 0.1 µM (active).

With `C[C@H](NC(=O)c1[nH]cnc1C(=O)Nc1cccc(Cl)c1)c1ccccc1` the CC50 [17] was 19.3 µM (active).

With `c1ccc(-c2ccc(-c3ccccn3)nn2)nc1` the EC50 [18] was > 100 µM (not active) and the EC50 [19] was > 50 µM (not active).

For `COc1cc(OC)c(/C=C2\SC(=O)N(CC(=O)Nc3ccccc3F)C2=O)c(OC)c1`, the IC50 [20] was 1.98 µM (active) and the IC50 [21] was > 111 µM (not active).

In the case of `Cc1ccccc1OCC(=O)Nc1sc(C(=O)Nc2cccc(C)c2C)c(C)c1C#N`, the EC50 [22] is reported as 36.5 µM (not active), the AC50 [23] is reported as “inconclusive” and the EC50 [24] is reported as 52.4 µM (not active). The EC50 [25] was < 79.4 µM (not active).

For `Cc1ccc2nc(NC(=O)c3ccco3)sc2c1`, the IC50 [26] was > 100 µM (inactive), the EC50 [18] was 18.9 µM (active) and the EC50 [19] was > 50 µM (not active).

For `COc1ccc2nc(O)c(-c3nnn(-c4ccc(C)cc4)n3)cc2c1`, the IC50 [6] was > 100 µM (not active) and the IC50 [7] was > 100 µM (not active).

With `O=C(CC1CCCC1)Nc1ccc2c(c1)CCC2` the EC50 [22] was > 79.4 µM (not active), the AC50 [27] was 7.08 µM (inconclusive) and the EC50 [24] was > 79.4 µM (not active). The EC50 [25] was > 79.4 µM (not active).

With `COc1ccc(N/C=C2/C(=O)N(c3ccc(OC)cc3)C(=O)c3ccccc32)cc1` the IC50 [20] was 8.99 µM (active) and the IC50 [21] was > 111 µM (not active).
